Reference: US6455250B1, “Endonuclease compositions and methods of use” (The Regents of the University of California, priority 1997, dated 2002)
Entries after “also recorded” stand apart in the source; their conditions may differ.

Tests used:
Endo-SR = target: T1, Endo-SR (Mus musculus, UniProt P56542); assay: Effect of M^2+ species and EDTA on murine Endo-SR activity (Example 1, FIG. 3B); format: biochemical
T1 construct: All nuclease assays were performed with Fraction IV enzyme (see below) as the source for Endo-SR activity, unless otherwise specified; endogenous in cells; host or cells: murine 38B9 pre-B cell line, nuclear extract, chromatographic Fraction IV (BioRex 70, 300 mM NaCl step)
T1 sequence (P56542 20-353): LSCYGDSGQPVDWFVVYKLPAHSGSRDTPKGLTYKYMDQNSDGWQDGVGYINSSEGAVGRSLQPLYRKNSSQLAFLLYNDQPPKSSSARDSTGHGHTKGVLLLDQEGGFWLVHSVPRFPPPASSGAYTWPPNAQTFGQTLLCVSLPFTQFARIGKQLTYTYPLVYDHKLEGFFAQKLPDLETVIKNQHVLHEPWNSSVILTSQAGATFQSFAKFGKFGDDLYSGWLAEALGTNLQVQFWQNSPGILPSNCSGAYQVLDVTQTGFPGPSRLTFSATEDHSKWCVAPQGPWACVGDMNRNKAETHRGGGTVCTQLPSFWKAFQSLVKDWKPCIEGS
Description: FIG. 3B. Effect of M^2+ species on Endo-SR activity. Nuclease assays were performed as previously described but with varied concentrations of different M^2+ species (or EDTA) replacing the standard (5 mM Mg^2+) assay condition. Activity values shown are expressed as percentages of an activity detected in a control assay (0 μM) containing no added M^2+ species.
Endonuclease assays were conducted in 10 μl reaction volumes containing 10 mM bis-Tris (pH6.5), 5 mM MgCl2, ˜250 pmoles of an end-labeled (^32P) DNA substrate, 1 μg of calf-thymus DNA, and 1 μl of an active Endo-SR fraction. […] All nuclease assays were performed with Fraction IV enzyme (see below) as the source for Endo-SR activity, unless otherwise specified. Nuclease assays performed for biochemical analysis of Endo-SR activity were conducted as described except for the addition or substitution of the test material. Reactions were incubated at 37° C. for 30 min, then mixed with an equal volume of formamide dye (Ausubel et al., 1987) and heated to 95° C. for 5 min prior to electrophoresis on an appropriate percentage (8-15%) sequencing gel. After electrophoresis, these gels were transferred to Whatman paper, dried, and exposed to film for 12-48 h. All detected cleavage products were compared to adjacent Maxam-Gilbert sequencing reactions, and adjusted one nucleotide 3′ to compensate for the removed base (Ausubel et al., 1987). After autoradiographic analysis, endonuclease activity was assayed by scintillation counting of intact substrate and specific cleavage products excised from the dried gel. End-labeled DNA substrates were prepared according to previously described methods (Hope et al., 1986).

bovine Endo-SR = target: T2, bovine Endo-SR (Bos taurus, UniProt P56541); assay: Effect of M^2+ cofactors and EDTA on bovine Endo-SR activity (FIG. 2B); format: biochemical; details: ≦50 μM
T2 construct: Nuclear extracts for enzyme purification were generated from bovine spleen; from tissue; host or cells: bovine spleen nuclear extract, Fraction V (Superose-12)
T2 sequence (P56541 20-365): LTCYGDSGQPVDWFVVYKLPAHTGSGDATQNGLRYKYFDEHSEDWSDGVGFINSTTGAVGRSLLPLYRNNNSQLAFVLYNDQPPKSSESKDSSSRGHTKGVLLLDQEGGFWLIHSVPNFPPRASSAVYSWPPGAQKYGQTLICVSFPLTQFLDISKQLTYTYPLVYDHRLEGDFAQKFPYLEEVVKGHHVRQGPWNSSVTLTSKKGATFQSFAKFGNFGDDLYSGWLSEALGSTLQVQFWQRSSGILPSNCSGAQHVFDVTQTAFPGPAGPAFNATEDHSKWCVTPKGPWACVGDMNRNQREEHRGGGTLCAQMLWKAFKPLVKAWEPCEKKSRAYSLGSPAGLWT
Description: (§1) FIG. 2B. Effect of various common divalent metal cation (M^2+) species on Endo-SR activity. Nuclease reaction buffer used in these assays contained no Mg^2+, and nuclease reactions were adjusted to various M or EDTA concentrations. Nuclease assays performed with supplemental M^2+ or EDTA were pre-incubated for 30 min on ice prior to addition of the DNA substrate. Specific endonuclease activity values detected in these assays were normalized against nuclease reactions, which contained no supplemental M^2+ or EDTA, and expressed as percentages of this reaction activity. Bovine and murine enzyme activities are represented by open and closed symbols, respectively.
(§2) Endo-SR activity was assayed in 10 μl reactions containing 50 mM sodium acetate (pH 5.5), ˜150 mM NaCl, 0.5 mM MgCl2, ˜250 fmoles of end-labeled DNA substrate (see below), 1 μg sheared salmon sperm DNA, and 1 μl of a diluted Endo-SR fraction. All reactions performed with bovine Endo-SR used Fraction V material (Table 2). Murine Endo-SR used in these assays was purified essentially as previously described (Lyon et al., 1996). All nuclease assays were incubated at 37° C. for 30 min, then mixed with 10 μl of formamide dye and denatured at 95° C. for 5 min prior to size-fractionation on standard sequencing gels. Endo-SR activity values (fmol/min) were determined by quantitation of the radioactivity present in specific nuclease cleavage products and intact substrate (negative control) excised from the dried gel (Lyon et al., 1996). Nuclease assays used to characterize the activity parameters of murine and bovine Endo-SR were performed essentially as previously described (Lyon et al., 1996).

murine Endo-SR = target: T3, murine Endo-SR (Mus musculus, UniProt P56542); assay: Effect of M^2+ cofactors and EDTA on murine Endo-SR activity (Example 2, FIG. 2B); format: biochemical; details: ≦50 μM
T3 construct: Nuclease assays were performed with purified bovine nuclease (Fraction V) and partially purified murine Endo-SR (Lyon et al., 1996); endogenous in cells
T3 sequence (P56542 20-353): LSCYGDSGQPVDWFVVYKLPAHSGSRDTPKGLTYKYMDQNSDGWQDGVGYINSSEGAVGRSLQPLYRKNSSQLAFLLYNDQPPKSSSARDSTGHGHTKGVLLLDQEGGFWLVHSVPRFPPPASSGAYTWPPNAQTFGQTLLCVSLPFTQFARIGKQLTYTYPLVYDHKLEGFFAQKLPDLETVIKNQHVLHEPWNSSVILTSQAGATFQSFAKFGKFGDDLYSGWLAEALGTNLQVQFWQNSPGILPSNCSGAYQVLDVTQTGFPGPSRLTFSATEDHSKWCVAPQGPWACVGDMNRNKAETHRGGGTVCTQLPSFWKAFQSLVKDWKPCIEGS
Description: as §1, §2

switch recombination = details: without demonstrably affecting cell proliferation or CH gene transcription; Loh et al., 1994a, 1995; cited from earlier work
[1] = target: the molecule itself; assay: native size exclusion chromatography (~35 000) compared with SDS-PAGE (Mr ~32 000)

For `[Ca+2]` [Ca^2+], which “effect on Endo-SR activity” value (Endo-SR; 500 μM) is on record?
Its value is “significantly enhanced”.

Which results are given for `[Zn+2]` [Zn^2+]?
effect on nuclease activity at low concentrations (bovine Endo-SR): significant degree of enzyme inhibition; effect on nuclease activity at low concentrations (murine Endo-SR): significant degree of enzyme inhibition; inhibition of Endo-SR activity (Endo-SR; 50 μM): ~50%; inhibition of Endo-SR activity (Endo-SR; 500 μM): ~95%

Which “effect on nuclease activity at low concentrations” value (shortened to “effect on nuclease activity”) (bovine Endo-SR) does the source give for `O=C(O)CN(CCN(CC(=O)O)CC(=O)O)CC(=O)O` [EDTA] here?
The value was “relatively resistant”.

And the “effect on nuclease activity” value (murine Endo-SR)?
Its value is “relatively resistant”.

And the “inhibition of Endo-SR activity” value (Endo-SR; 5 mM)?
The value was ~40%.

What about the “effect on Endo-SR activity” value (Endo-SR; 50 mM) of the same molecule?
Its value is “completely inhibited; also recorded: complete inhibition”.

Which “effect on switch rearrangement” value (switch recombination) does the source give for `CCCc1c2oc(C(=O)O)cc(=O)c2cc2c(=O)cc(C(=O)O)n(CC)c12` [nedocromil sodium] here?
The value was “dramatically repress switch rearrangement”.

For `[Mg+2]` [Mg^2+], which “effect on nuclease activity” value (bovine Endo-SR) is on record?
The value was “significant degree of enzyme inhibition”.

And the “effect on nuclease activity” value (murine Endo-SR)?
The value was “significant degree of enzyme inhibition”.

And the “effect on Endo-SR activity” value (Endo-SR; 500 μM)?
Its value is “significantly enhanced; also recorded: maximal activity”.

Which “effect on switch rearrangement” value (switch recombination) does the source give for `O=C([O-])c1cc(=O)c2c(OCC(O)COc3cccc4oc(C(=O)[O-])cc(=O)c34)cccc2o1.[Na+].[Na+]` [disodium cromoglycolate] here?
Its value is “dramatically repress switch rearrangement”.

B1: purified bovine Endo-SR (Fraction V, from bovine spleen nuclear extract) (enzyme, UniProt P56541 20-365, looked up)
chain: LTCYGDSGQPVDWFVVYKLPAHTGSGDATQNGLRYKYFDEHSEDWSDGVGFINSTTGAVGRSLLPLYRNNNSQLAFVLYNDQPPKSSESKDSSSRGHTKGVLLLDQEGGFWLIHSVPNFPPRASSAVYSWPPGAQKYGQTLICVSFPLTQFLDISKQLTYTYPLVYDHRLEGDFAQKFPYLEEVVKGHHVRQGPWNSSVTLTSKKGATFQSFAKFGNFGDDLYSGWLSEALGSTLQVQFWQRSSGILPSNCSGAQHVFDVTQTAFPGPAGPAFNATEDHSKWCVTPKGPWACVGDMNRNQREEHRGGGTLCAQMLWKAFKPLVKAWEPCEKKSRAYSLGSPAGLWT
notes: Native enzyme purified to homogeneity; also called bovine Endo-SR nuclease; Mr ~32 000 protein species
Does B1 bind [1]?
Result: no binding
